Test system: GPR83 and deletion variant GPR83del (untagged or HA-tagged, U2OS clones)
Assay: Intracellular calcium mobilization, U2OS cells
Format: cell-based, human
Settings: 10 µM PEN, controls co mix or 50 µM ionomycin, traces over 60 s, ligand added 10 s after start of recording, Fluo4-AM, duplicate, repeated at least two times
Method: As activation of many GPCRs is coupled to calcium mobilization from intracellular stores, GPR83 was probed for ligand-dependent calcium release. Wild-type HEK293 cells and HEK293 clones overexpressing either full-length GPR83 or the N-terminal deletion variant GPR83del were exposed to buffer or one of two independent synthesis batches (PEN #1 and PEN #2) of the neuropeptide PEN, while calcium indicator fluorescence was recorded. […] Calcium release was also tested in a second cell line, osteosarcoma U2OS cells, using various stably expressing clones. […] Therefore, HEK293 cells transfected with Gα16 were employed to investigate a potential GPR83-dependent calcium mobilization with PEN. […] A number of GPCRs show ligand-independent basal calcium activity. […]
Figure 2 Investigation of ligand-dependent and ligand-independent intracellular calcium mobilization. […] (B) Calcium indicator fluorescence intensity traces over 60 s of various U2OS cell clones overexpressing untagged or HA-tagged GPR83 or the deletion variant GPR83del before and after the addition of buffer or ligand (co mix as in (A) or 50 µM ionomycin or 10 µM PEN). […]
Cells were seeded at 50,000 cells/well in a poly-D-lysine coated 96-well black well/clear bottom plate (BD Falcon, Franklin Lakes, NJ, USA) and cultured overnight. […] Fluorescence data were generated in duplicate, and experiments were repeated at least two times.

AADHDVGSELPPEGVLGALLRV [PEN, batch #1 synthesized, batch #2 purchased from Phoenix Pharmaceuticals]
enhancement of calcium indicator fluorescence: PEN did not

From publication PMC10606834, “Is the Neuropeptide PEN a Ligand of GPR83?” (International Journal of Molecular Sciences, 2023)
